Patent US5759565A, “Galenic compositions comprising calcitonin and their use” (Novartis Corporation, priority 1982, dated 1998)

What was measured:
[1] = test system: ciliary beating frequency of rat trachea; test: Ciliary beating frequency, microphoto-oscillographic method of L. Chevance et al; type: cell-based; conditions: at 0.6%; within 20 minutes
Protocol: 70, […] (1970). These are just some of the disadvantageous effects that can be encountered.
Moreover the compositions are well tolerated as indicated in standard tests, e.g. in that less than 50% inhibition of ciliary beating frequency is observed up to 20 minutes after administration, according to the microphoto-oscillographic method of L. Chevance et al, Acta Otolaryng. 70, 26-28 (1970).

[2] = Relative bio-availability study: nasal administration/intra-muscular injection of salmon calcitonin, serum level by radio-immuno-assay; type: in vivo, human (healthy volunteers)
Protocol: The study is conducted with 12 healthy volunteers, 6 male and 6 female, with a body weight of from 50 to 85 kg. Each subject receives 4 administrations of salmon calcitonin, one intra-muscularly and 3 nasally. Administration is effected at the following dosages:
Nasal administration is effected using composition in accordance with example 1 and a spray-applicator delivering 55 MRC units per individual spray dosage. For the purposes of administration the subject is laid on the back with the head tilted backwards for 5 minutes. The nostrils are cleaned by blowing of the nose immediately prior to administration.
Intra-muscular administration is effected by injection of a single 1 ml dose of a composition similar to that of example 1, but omitting benzalkonium chloride and containing 50 MRC units into the glutaeus medius muscle.
Each subject receives the 4 administrations in randomized sequence, and at least 3 days are allowed between consecutive administrations. Each administration is effected in the morning after a light breakfast from which milk, butter and cheese is excluded. 100 ml water or orange juice is taken hourly following treatment to maintain urinary output. Further food is allowed not earlier than 4 hours after treatment.
Blood samples are taken immediately prior to administration (control), and at intervals of 5, 15, 30, 60, 90, 120, 180, 240, 360 and 480 minutes following administration. For the control a 20 ml sample is taken. All subsequent samples are 2 ml samples.
The concentration of salmon calcitonin in each serum sample is measured by radio-immuno-assay. Blood-pressure is controlled during the course of the trial and urine-samples tested for possible adverse reaction. Occurrence of side-effects, e.g. symptoms of nausea, is noted.
The AUC ("area under curve") for salmon calcitonin plasma concentration is calculated statistically, once employing all value, including those below the 26 pg/ml detectability limit, once with values below the detectability limit read as zero. Maximal plasma concentration and time at which this is reached are also determined. […]

| AUC of serum concentration compared with 50 MRC units i.m. ([2]; 110 MRC units intra-nasally) | AUC of serum concentration compared with 50 MRC units i.m. ([2]; 220 MRC units intra-nasally) | SMILES | inhibition of the ciliary beating frequency of rat trachea [1] | adverse side-effects ([2]; nasal administrations, up to the highest dosage of 220 MRC units) |
| --- | --- | --- | --- | --- |
| – | – | CC(C)(O)C(Cl)(Cl)Cl [chlorbutanol] | more than 50% | – |
| comparable | comparable | CC(C)C[C@H](NC(=O)[C@H](CCCCN)NC(=O)CNC(=O)[C@H](CC(C)C)NC(=O)[C@@H](NC(=O)[C@@H]1CSSC[C@H](N)C(=O)N[C@@H](CO)C(=O)N[C@@H](CC(N)=O)C(=O)N[C@@H](CC(C)C)C(=O)N[C@@H](CO)C(=O)N[C@@H]([C@@H](C)O)C(=O)N1)C(C)C)C(=O)N[C@@H](CO)C(=O)N[C@@H](CCC(N)=O)C(=O)N[C@@H](CCC(=O)O)C(=O)N[C@@H](CC(C)C)C(=O)N[C@@H](Cc1c[nH]cn1)C(=O)N[C@@H](CCCCN)C(=O)N[C@@H](CC(C)C)C(=O)N[C@@H](CCC(N)=O)C(=O)N[C@H](C(=O)N[C@@H](Cc1ccc(O)cc1)C(=O)N1CCC[C@H]1C(=O)N[C@@H](CCCNC(=N)N)C(=O)N[C@H](C(=O)N[C@@H](CC(N)=O)C(=O)N[C@H](C(=O)NCC(=O)N[C@@H](CO)C(=O)NCC(=O)N[C@H](C(=O)N1CCC[C@H]1C(N)=O)[C@@H](C)O)[C@@H](C)O)[C@@H](C)O)[C@@H](C)O [salmon calcitonin] | – | No adverse side-effects were recorded |
